Experimental data published in patent publication US12509444B2, “Compounds and methods for CD73 modulation and indications therefor” (Plexxikon Inc., priority 2019, dated 2025).

Assays:
[1] = molecular target: T1, Human CD73 (amino acid residues 27-549) (Homo sapiens, UniProt P21589); assay: CD73 enzymatic assay (luciferase-based indirect assay, CellTiter-Glo); format: biochemical; settings: 0.4 nM CD73, 150 μM AMP, 1 hour at room temperature
T1 construct: Human CD73 (amino acid residues 27-549); His tag (N); made in house; host or cells: E. coli
T1 sequence (P21589 27-549): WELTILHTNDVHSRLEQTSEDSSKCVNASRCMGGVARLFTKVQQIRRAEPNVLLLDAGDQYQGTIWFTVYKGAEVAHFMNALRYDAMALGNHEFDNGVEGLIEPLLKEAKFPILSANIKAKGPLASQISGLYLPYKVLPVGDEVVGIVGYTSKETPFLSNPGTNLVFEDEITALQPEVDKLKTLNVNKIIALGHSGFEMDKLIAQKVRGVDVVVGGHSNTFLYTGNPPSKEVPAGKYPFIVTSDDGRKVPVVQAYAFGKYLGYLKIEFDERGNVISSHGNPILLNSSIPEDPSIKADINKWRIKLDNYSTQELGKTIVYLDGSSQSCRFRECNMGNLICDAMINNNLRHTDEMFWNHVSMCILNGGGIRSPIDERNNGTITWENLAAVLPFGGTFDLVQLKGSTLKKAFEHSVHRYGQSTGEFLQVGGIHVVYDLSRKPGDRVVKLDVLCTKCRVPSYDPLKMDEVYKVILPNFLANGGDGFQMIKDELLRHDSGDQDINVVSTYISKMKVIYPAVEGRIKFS
In short: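 Residual AMP inhibits luciferase, so luminescence reports CD73 turnover; read with CellTiter-Glo 2.0 plus 1 μM final ATP, 30 min. Reaction used 0.4 nM N-His CD73 (27-549, E. coli), 150 μM AMP, HEPES pH 7.4 with Tween 20, 1 h at room temperature. IC50 fitted by nonlinear regression.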

human CD73 = molecular target: T2, human CD73 (Homo sapiens, UniProt P21589); assay: Inhibitor activity against CD73 in cell based assay (CD73 expressing CHO-K1 cells); settings: CHO-K1 cells expressing human CD73, 150 μM AMP, 4 hours of incubation; read-out: CHO-K1 CELL VARIANT: CD73 IC50
T2 construct: expressed in transfected cells
T2 sequence (P21589 27-549): T1 sequence (P21589 27-549)
In short: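 Residual supernatant AMP was quantified via CellTiter-Glo luminescence (1 μM ATP added, 30 min, room temperature) after a 4 h exposure of human CD73-expressing CHO-K1 cells to 150 μM AMP plus compound, top final 10 μM, 8 points. IC50 came from nonlinear regression of percent inhibition.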

Structure (SMILES) | IC50 [1] [µM] | IC50 (human CD73) [µM]
CNC(=O)N[C@H]1CC[C@H](NC(=O)O[C@@H]2CCN(c3cn[nH]c(=O)c3Cl)C2)CC1 [P-0319, (R)-1-(5-chloro-6-oxo-1,6-dihydropyridazin-4-yl)pyrrolidin-3-yl ((1r,4R)-4-(3-methylureido)cyclohexyl) carbamate] | 0.001 to 10 | 0.001 to 10
Cn1ncc(N2CC[C@@H](OC(=O)N[C@H]3CC[C@H](NS(=O)(=O)C4CCCC4)CC3)C2)c(Cl)c1=O [P-0228, (R)-1-(5-chloro-1-methyl-6-oxo-1,6-dihydropyridazin-4-yl)pyrrolidin-3-yl ((1r,4R)-4-(cyclopentanesulfonamido)cyclohexyl)carbamate] | 0.001 to 10 | 0.001 to 10
O=CN1CCC(CNC(=O)O[C@@H]2CCN(c3cn[nH]c(=O)c3Cl)C2)CC1 [P-0242, (R)-1-(5-chloro-6-oxo-1,6-dihydropyridazin-4-yl)pyrrolidin-3-yl ((1-formylpiperidin-4-yl)methyl)carbamate] | 0.001 to 10 | 0.001 to 10
O=C(N[C@H]1CC[C@H](NC(=O)c2cccnc2)CC1)O[C@@H]1CCN(c2cn[nH]c(=O)c2Cl)C1 [P-0256, (R)-1-(5-chloro-6-oxo-1,6-dihydropyridazin-4-yl)pyrrolidin-3-yl ((1r,4R)-4-(nicotinamido)cyclohexyl) carbamate] | 0.001 to 10 | 0.001 to 10
O=C(N[C@@H]1CCN(C(=O)NC2CCCCC2)C1)O[C@@H]1CCN(c2cn[nH]c(=O)c2Cl)C1 [P-0354, (R)-1-(5-chloro-6-oxo-1,6-dihydropyridazin-4-yl)pyrrolidin-3-yl ((R)-1-(cyclohexylcarbamoyl)pyrrolidin-3-yl)carbamate] | 0.001 to 10 | 0.001 to 10
O=C(Nc1cccc(C(=O)O)c1)N[C@H]1CC[C@H](NC(=O)O[C@@H]2CCN(c3cn[nH]c(=O)c3Cl)C2)CC1 [P-0346, 3-(3-((1R,4r)-4-(((((R)-1-(5-chloro-6-oxo-1,6-dihydropyridazin-4-yl)pyrrolidin-3-yl)oxy)carbonyl)amino)cyclohexyl)ureido)benzoic acid] | 0.001 to 10 | 0.001 to 10
O=C(N[C@H]1CC[C@H](NC(=O)c2cccc(F)c2)CC1)O[C@@H]1CCN(c2cn[nH]c(=O)c2Cl)C1 [P-0315, (R)-1-(5-chloro-6-oxo-1,6-dihydropyridazin-4-yl)pyrrolidin-3-yl ((1r,4R)-4-(3-fluorobenzamido)cyclohexyl) carbamate] | 0.001 to 10 | 0.001 to 10
N#CC1(NC(=O)O[C@@H]2CCN(c3cnn(CCO)c(=O)c3Cl)C2)CCCC1 [P-0476, (R)-1-(5-chloro-1-(2-hydroxyethyl)-6-oxo-1,6-dihydropyridazin-4-yl)pyrrolidin-3-yl (1-cyanocyclopentyl)carbamate] | 0.001 to 10 | 0.001 to 10
O=C(N[C@H]1CC[C@@H](Nc2cc(F)ccn2)CC1)O[C@@H]1CCN(c2cn[nH]c(=O)c2Cl)C1 [P-0330, (R)-1-(5-chloro-6-oxo-1,6-dihydropyridazin-4-yl)pyrrolidin-3-yl ((1s,4S)-4-((4-fluoropyridin-2-yl)amino)cyclohexyl)carbamate] | 0.001 to 10 | 0.001 to 10
O=C(NCc1ccccc1)O[C@@H]1CCN(c2cn[nH]c(=O)c2Cl)C1 [P-0100, (R)-1-(5-chloro-6-oxo-1,6-dihydropyridazin-4-yl)pyrrolidin-3-yl benzylcarbamate] | 0.001 to 10 | 10 to 100
O=C(NC1(C2CCCCC2)CC1)O[C@@H]1CCN(c2cn[nH]c(=O)c2Cl)C1 [P-0410, (R)-1-(5-chloro-6-oxo-1,6-dihydropyridazin-4-yl)pyrrolidin-3-yl (1-cyclohexylcyclopropyl) carbamate] | 0.001 to 10 | 0.001 to 10
O=C(N[C@H]1C[C@@](O)(C(F)(F)F)C1)O[C@@H]1CCN(c2cn[nH]c(=O)c2Cl)C1 [P-0368, (R)-1-(5-chloro-6-oxo-1,6-dihydropyridazin-4-yl)pyrrolidin-3-yl ((1r,3r)-3-hydroxy-3-(trifluoromethyl)cyclobutyl)carbamate] | 0.001 to 10 | 0.001 to 10
O=C(NC1CCC(F)(F)CC1)N[C@@H]1CCN(c2cn[nH]c(=O)c2Cl)C1 [P-0022, (R)-1-(1-(5-chloro-6-oxo-1,6-dihydropyridazin-4-yl)pyrrolidin-3-yl)-3-(4,4-difluorocyclohexyl)urea] | 0.001 to 10 | 10 to 100
O=C(NC1(c2ccc(F)cc2)CC1)O[C@@H]1CCN(c2cn[nH]c(=O)c2Cl)C1 [P-0362, (R)-1-(5-chloro-6-oxo-1,6-dihydropyridazin-4-yl)pyrrolidin-3-yl (1-(4-fluorophenyl)cyclopropyl) carbamate] | 0.001 to 10 | 0.001 to 10
O=C(NCC1(CCl)CC(NC(=O)O[C@@H]2CCN(c3cn[nH]c(=O)c3Cl)C2)C1)Nc1ccc(F)cc1 (stereo partly drawn) [P-0177, (R)-1-(5-chloro-6-oxo-1,6-dihydropyridazin-4-yl)pyrrolidin-3-yl (3-(chloromethyl)-3-((3-(4-fluorophenyl)ureido)methyl)cyclobutyl)carbamate] | 0.001 to 10 | 0.001 to 10
O=C(Nc1ccc(F)cc1F)N[C@H]1CC[C@H](NC(=O)O[C@@H]2CCN(c3cn[nH]c(=O)c3Cl)C2)CC1 [P-0323, (R)-1-(5-chloro-6-oxo-1,6-dihydropyridazin-4-yl)pyrrolidin-3-yl ((1r,4R)-4-(3-(2,4-difluorophenyl)ureido)cyclohexyl)carbamate] | 0.001 to 10 | 0.001 to 10
O=C(NC1CCN(C(=O)Cc2ccccc2Cl)CC1)O[C@@H]1CCN(c2cn[nH]c(=O)c2Cl)C1 [P-0421, (R)-1-(5-chloro-6-oxo-1,6-dihydropyridazin-4-yl)pyrrolidin-3-yl (1-(2-(2-chlorophenyl)acetyl)piperidin-4-yl)carbamate] | 0.001 to 10 | 0.001 to 10
O=C(N[C@H]1CC[C@H](NC(=O)c2ccncc2)CC1)O[C@@H]1CCN(c2cn[nH]c(=O)c2Cl)C1 [P-0264, (R)-1-(5-chloro-6-oxo-1,6-dihydropyridazin-4-yl)pyrrolidin-3-yl ((1r,4R)-4-(isonicotinamido)cyclohexyl) carbamate] | 0.001 to 10 | 0.001 to 10
Cn1ncc(N2CC[C@@H](OC(=O)N[C@H]3CC[C@@H](C)CC3)C2)c(Cl)c1=O [P-0210, (R)-1-(5-chloro-1-methyl-6-oxo-1,6-dihydropyridazin-4-yl)pyrrolidin-3-yl ((1s,4S)-4-methylcyclohexyl)carbamate] | 0.001 to 10 | 0.001 to 10
O=C(NC1CCCC1)N[C@@H]1CCN(c2cn[nH]c(=O)c2Cl)C1 [P-0046, (R)-1-(1-(5-chloro-6-oxo-1,6-dihydropyridazin-4-yl)pyrrolidin-3-yl)-3-cyclopentylurea] | 0.001 to 10 | 0.001 to 10
CC(C)NS(=O)(=O)N[C@H]1CC[C@H](NC(=O)O[C@@H]2CCN(c3cn[nH]c(=O)c3Cl)C2)CC1 [P-0311, (R)-1-(5-chloro-6-oxo-1,6-dihydropyridazin-4-yl)pyrrolidin-3-yl ((1r,4R)-4-((N-isopropylsulfamoyl)amino)cyclohexyl)carbamate] | 0.001 to 10 | 0.001 to 10
CS(=O)(=O)N[C@H]1CC[C@H](NC(=O)O[C@@H]2CCN(c3cn[nH]c(=O)c3Cl)C2)CC1 [P-0129, (R)-1-(5-chloro-6-oxo-1,6-dihydropyridazin-4-yl)pyrrolidin-3-yl ((1r,4R)-4-(methylsulfonamido)cyclohexyl)carbamate] | 0.001 to 10 | 0.001 to 10
O=C(NC12CCC(CC1)C2)O[C@@H]1CCN(c2cn[nH]c(=O)c2Cl)C1 [P-0349, (R)-1-(5-chloro-6-oxo-1,6-dihydropyridazin-4-yl)pyrrolidin-3-yl bicyclo[2.2.1]heptan-1-ylcarbamate] | 0.001 to 10 | 0.001 to 10
O=C(N[C@@H]1CC[C@H]1C(F)(F)F)O[C@@H]1CCN(c2cn[nH]c(=O)c2Cl)C1 [P-0367, (R)-1-(5-chloro-6-oxo-1,6-dihydropyridazin-4-yl)pyrrolidin-3-yl ((1R,2R)-2-(trifluoromethyl)cyclobutyl) carbamate] | 0.001 to 10 | 0.001 to 10
CN1CC(NC(=O)O[C@@H]2CCN(c3cn[nH]c(=O)c3Cl)C2)CC1=O (stereo partly drawn) [P-0208, (R)-1-(5-chloro-6-oxo-1,6-dihydropyridazin-4-yl)pyrrolidin-3-yl (1-methyl-5-oxopyrrolidin-3-yl)carbamate] | 0.001 to 10 | 0.001 to 10
Cc1onc(C(=O)N2CCC(NC(=O)O[C@@H]3CCN(c4cn[nH]c(=O)c4Cl)C3)CC2)c1C [P-0498, (R)-1-(5-chloro-6-oxo-1,6-dihydropyridazin-4-yl)pyrrolidin-3-yl (1-(4,5-dimethylisoxazole-3-carbonyl)piperidin-4-yl)carbamate] | 0.001 to 10 | 0.001 to 10
